# From ChEMBL document CHEMBL3507680, “University of Dundee, Gates Library screen for HepG2 cell viability”
# Test: Human HepG2 cell viability assay in 384 well format
# Assay type: toxicity, cell-based
# Design: dose 125 nL, time 70.5 hour; concentration not given beside the values
# Conditions: HepG2 cells, read-out: Inhibition
row,SMILES,cytotoxicity at 70.5 h [%]
1,O=C(CCC(=O)Nc1nnc(C2CCCCC2)s1)NCC1CCCO1 (stereo not given),-12.1
2,Cc1cccc(NC(=O)C2CC(=O)n3cnnc3S2)c1 (stereo not given),-0.584
3,CN(CC(=O)N1CCc2[nH]c3ccc(F)cc3c2C1)CC1OCCO1,3.34
4,CCSc1nnc(N(CCC#N)CCC#N)s1,1.21
5,Cc1ccc(C)c(CSc2nnc([C@@H](N)C(C)C)o2)c1,-0.583
6,COC(=O)COn1c(SC(C)C)nc2ccccc2c1=O,-3.63
7,Cn1c2ccc(F)cc2c2ncn(CCCN(CCO)CCO)c(=O)c21,18.9
8,CSc1nnc(N(CCC#N)CCC#N)s1,6.15
9,Cn1c(C(=O)N2CC[C@@]3(O)CCCC[C@H]3C2)cc2ccccc21,-3.98
10,Cn1ccc2ccc(C(=O)N3CC[C@@]4(O)CCCC[C@H]4C3)cc21,7.95
11,Cn1ccc2cc(C(=O)N3CC[C@@]4(O)CCCC[C@H]4C3)ccc21,-13.9
12,Cn1ccc2ccc(C(=O)NC3CCOC(C)(C)C3)cc21 (stereo not given),8.55
13,Cc1nn(-c2ncnc3[nH]cnc23)c2c1C(C(C)C)CC(=O)N2 (stereo not given),-1.6
14,COc1cc2nc(C)n(CC(=O)NCCO)c(=O)c2cc1OC,-8.13
15,Cn1c(CN2CCCCC2)cc(=O)c(O)c1CN1CCCCC1,2.14
16,COc1ccc(NC(=O)CCNc2ncccn2)cn1,-30.9
17,COc1cc(C2CC(=O)Oc3cc(C)[nH]c(=O)c32)ccc1O (stereo not given),-18.3
18,COc1cc(OC)c(C2CC(=O)Oc3cc(C)[nH]c(=O)c32)c(OC)c1 (stereo not given),-20.1
19,COC(=O)CC(C1=Cc2ccccc2OC1)c1oc(C)cc(=O)c1O (stereo not given),19.3
20,O=C(NCC1CCOCC1)c1cc(-c2ccc3c(c2)CCO3)n[nH]1,17.3
21,C=C(C)COc1ccc(C(CC(=O)OC)c2oc(C)cc(=O)c2O)cc1 (stereo not given),-0.596
22,O=c1[nH]cc(Nc2ccccc2)c(=O)[nH]1,35

row,SMILES,cytotoxicity at 70.5 h [%]
1,OCc1cc2ccccc2nc1N1CCCCC1,31.2
2,CCOc1ccc2[nH]c3c(N(C)CC4OCCO4)ncnc3c2c1,-21.1
3,CC(C)C[C@H](NC(=O)N1CCC(Cc2ccccc2)CC1)C(=O)O,-5.66
4,COc1ccc(-c2nc(C#N)c(N(C)C)o2)cc1OC,-5.52
5,CC(C)C[C@H](NC(=O)Nc1ccc(F)c(Cl)c1)C(=O)O,6.99
6,CCN1C(=O)C(C#N)=C(C)/C(=C/C2=Cc3ccccc3OC2)C1=O,7.28
7,COC(=O)COn1c(SC)nc2ccccc2c1=O,-9.2
8,CCS(=O)(=O)c1nnc([C@@H](N)Cc2ccccc2)o1,16.2
9,CC(C)NC(=O)N(Cc1cc(O)nc2ccccc12)C(C)C,-7.39
10,COCCN(Cc1cc(O)nc2ccccc12)C(=O)NC(C)C,-14.7
11,CC(C)Cc1nc(OCC#N)c(C#N)c2c1CCC2,-2.63
12,COCCCN(Cc1cc(O)nc2ccccc12)C(=O)NC(C)C,-13.5
13,O=C(CC1NC(N2CCc3ccccc32)=NC1=O)Nc1ccc(Cl)cc1 (stereo not given),-11.1
14,COc1ccc(-c2nc(C#N)c(N(C)C)o2)cc1S(=O)(=O)N(C)C,-11.8
15,O=C(CC1NC(N2CCc3ccccc32)=NC1=O)Nc1ccccc1 (stereo not given),-5.06
16,COc1cccc(-c2nc(C)c(C(=O)N[C@H](CO)CCSC)s2)c1,-5.73
17,Cc1cc(C)n2c(CCCNS(=O)(=O)c3ccccc3)nnc2n1,-7.9
18,Cc1sc(NS(=O)(=O)c2ccccc2)nc1C(=O)NC1CC1,-1.95
19,Cc1cc(C)n2c(CCCNS(=O)(=O)c3ccc(F)cc3)nnc2n1,-8.75
20,CCc1ccc2c(C3CN(S(C)(=O)=O)C3)ncn2c1,9.29
21,Cc1nc(-c2cnn(C)c2)nc2c1CN(C(=O)c1cccnc1)CC2,-2.03
22,Cc1nc(-c2cnn(C)c2)nc2c1CN(C(=O)c1cccn1C)CC2,1.91

row,SMILES,cytotoxicity at 70.5 h [%]
1,Cc1ncoc1C(=O)N1C[C@@H]2CN(CC3CC3)CCO[C@@H]2C1,10.6
2,Cc1cccc(S(=O)(=O)N2CCCc3c(c(=O)n(C)n3C)C2)c1,-9.39
3,CS(=O)(=O)N1CC(c2ncn3ccccc23)C1,-9.83
4,Cc1ncsc1CN1C[C@@H]2CN(Cc3cccnc3)CCO[C@@H]2C1,-5.27
5,c1csc(CN2CCc3nc(N4CCOCC4)nc(NC4CC4)c3C2)n1,17
6,COc1cccc(N2CC3(CCN(c4cc(OC)ncn4)C3)CC2=O)c1 (stereo not given),7.12
7,C1CN(c2nc3c(c(NC4CC4)n2)CN(CC2CCOC2)CC3)CCO1 (stereo not given),-9.83
8,COc1cc(N2CC3(CCN(S(=O)(=O)C4CC4)C3)C2)ncn1,-7.2
9,Cc1ccsc1C(=O)N1CCCc2c(c(=O)n(C)n2C)C1,-11
10,Fc1ccc2c(c1)C1(CCNCC1)CC2OCC1CC1 (stereo not given),-7.69
11,COc1cc(N2CC3(CCN(c4ncccn4)C3)C2)ncn1,-9.27
12,CN1CCCCC12CCN(c1nncs1)C2 (stereo not given),-9.3
13,Cc1cccc(CN2C[C@@H](NC(=O)C3CCC3)[C@H]3COC[C@H]32)n1,-5.38
14,O=C(c1cscn1)N1CCCC12CCCN(S(=O)(=O)c1ccccc1)C2 (stereo not given),-2.41
15,CCS(=O)(=O)N1CCCC2(CCCN2C(=O)c2cscn2)C1 (stereo not given),-0.54
16,CN(Cc1ccccc1)CC1CC2(CO1)CN(Cc1cnn(C)c1)C2 (stereo not given),-6.11
17,O=C(NC1CC1)N1Cc2[nH]nc(COCC3CC3)c2C1,-7.86
18,Fc1cccnc1N1CCC2(CNCCC2(F)F)C1 (stereo not given),12.5
19,Cn1nc(CN2CCCC2)c2c1CN(C(=O)c1ccc[nH]1)CC2,11.9
20,c1cnn(Cc2nnc3n2CCCN(c2nccs2)C3)c1,12.8
21,CN1CCN([C@@H]2CCN(C(N)=O)[C@H]2Cc2ccccc2)CC1,-0.0899
22,Cn1cncc1CN1CCC2(CC1)CCN2c1ncccn1,-2.28

row,SMILES,cytotoxicity at 70.5 h [%]
1,CC1c2ncc(COCC3CCOCC3)n2CCN1C(=O)c1ccoc1 (stereo not given),-2.87
2,c1cnc(N2CCCn3c(nnc3Cn3cccn3)C2)nc1,1.91
3,CC(=O)N1CC[C@@H](N2CCN(C)CC2)[C@@H]1Cc1ccccc1,-2.96
4,CCn1cc2c(n1)CN(S(=O)(=O)c1ccc(C)cc1)CC2COC (stereo not given),-1.69
5,O=C(NC1CCc2c(ccc(=O)n2CC2CC2)C1)c1ccsc1 (stereo not given),-1.91
6,CC(=O)N1CCC2(CC1)C(=O)N(c1cccnc1)c1ccc(F)cc12,-4.87
7,CCS(=O)(=O)N1C[C@@H]2COC[C@@H](Cc3nc(C)no3)[C@@H]2C1,-2.03
8,Cn1nc(CN2CCCCC2)c2c1CN(C(=O)Nc1cccc(F)c1)C2,11.6
9,CC(C)NC(=O)N1CCN(C(=O)c2ccco2)CC2(CC(=O)N(C)C2)C1 (stereo not given),-23.2
10,CCC(C)[C@H](N)c1nnc(SCC(=O)Nc2cc(C)ccc2C)o1 (stereo not given in full),-1.84
11,CC(C)C[C@H](N)c1nnc(SCC(=O)Nc2ccc(Br)cc2)o1,-5.07
12,N[C@@H](Cc1ccccc1)c1nnc(S(=O)(=O)Cc2cccc(Cl)c2)o1,13.5
13,CCN1CCC2(CC1)OCCN2C(=O)c1cc(Cl)c(OC)c(Cl)c1,8.67
14,CC(C)N1CCC2(CC1)C(=O)N(c1cccnc1)c1c(F)cccc12,-2.98
15,CN(C)CCNCCC(Cc1ccccc1)C1CCOC(C)(C)C1 (stereo not given),-8.7
16,Cc1ccc(C(CCNCCN(C)C)C2CCOC(C)(C)C2)cc1 (stereo not given),-5.89
17,CN(C)CCCNCCC(Cc1ccccc1)C1CCOC(C)(C)C1 (stereo not given),1.12
18,CCN1CCO[C@@H]2CN(C(=O)c3cocn3)C[C@@H]2C1,34.2
19,O=C(c1ccc2ccc(N3CCN(CC4CC4)CC3)n2c1)N1CCCO1,-5.05
20,O=C([C@H]1CCS(=O)(=O)[C@@H]2CN(CCc3ccccc3)C[C@H]12)N1CCCC1,-1.64
21,O=C(c1cocn1)N1C[C@@H]2CN(CC3CC3)CCO[C@@H]2C1,-1.55
22,CC(C)N1CCc2ncn(C)c2C1C(=O)N1CCOCC1 (stereo not given),5.22

row,SMILES,cytotoxicity at 70.5 h [%]
1,CCS(=O)(=O)N1CCC2(CC1)CC1(CCN(CCOC)CC1)C(=O)N2C,-6.01
2,CCN1CCCC12CCCN(c1ncccn1)C2 (stereo not given),-9.5
3,COc1cc(N2CC3(CCN(S(C)(=O)=O)C3)C2)ncn1,-12
4,CN1CCCCC12CCN(c1nncs1)CC2,1.8
5,O=C(N[C@@H]1CN(Cc2cccs2)[C@@H]2COC[C@@H]21)C1CCC1,-4.79
6,CCN1C(=O)[C@H]2CN(CC(C)C)C[C@H]2C12CCN(C(=O)NC(C)C)CC2,-1.18
7,CC(C)CN1CCCC12CCN(c1nncs1)C2 (stereo not given),-4.38
8,CCc1cnc(N2CCc3ncnc(N4CCN(C)CC4)c3CC2)nc1,-3.37
9,CCCS(=O)(=O)N1CCc2c(COCC)cncc2C1,-3.03
10,O=C(N1CCCO1)[C@]12COC[C@H]1CN(Cc1nccs1)C2,-7.21
11,Cn1ccnc1CN1CCO[C@H]2C(CNC(=O)c3ccco3)CC[C@@H]21 (stereo not given in full),-0.67
12,Cc1ncc2c(c1C(=O)O)CCN(c1ncc(F)cn1)C2,-0.54
13,CCN1CC2(CC1=O)CN(Cc1ccc(C)o1)CCN(C(=O)C(C)C)C2 (stereo not given),-16.6
14,O=C(O)c1cc2c(nc1N1CCOCC1)CCN(C1CCOC1)CC2 (stereo not given),-4.23
15,COc1ccc(CN2C[C@H]3CCC[C@@H](CN(C)C4CC4)[C@H]3C2)cn1,10.8
16,CO[C@@H]1CCN(S(=O)(=O)N(C)C)[C@@H]2CN(Cc3cccnc3)C[C@@H]21,-4.13
17,Cn1nccc1-c1ncc2c(c1C(=O)O)CCN(Cc1ccncc1)C2,-0.712
18,CNC(=O)CN1CCOCC12CCN(Cc1ccncc1)CC2,-16.2
19,COc1ccc(CN2C[C@@H]3CN(Cc4cccnc4)CCO[C@@H]3C2)cc1,-9.13
20,c1cc(CN2C[C@@H]3OCCN(CCN4CCCC4)[C@@H]3C2)cs1,-8.5
21,c1cc(CN2C[C@@H]3OCCN(CCN4CCCC4)[C@@H]3C2)ccn1,-8.99
22,COc1ccc2[nH]cc(C(=O)CNc3nccs3)c2c1,14.4
